Measured values taken from PMC7730206, “2-Deoxy-D-glucose Promotes Buforin IIb-Induced Cytotoxicity in Prostate Cancer DU145 Cells and Xenograft Tumors” (Molecules, 2020).
pIC50: −log10 of the molar value. “Also recorded” adds a separate entry of the source.

Assays:
[1] = test system: prostate cancer cell line DU145; experiment: CCK-8 cell viability assay, DU145; type: cell-based, human
Description: (§1) Cells were seeded in 96-well plates at a density of 1 × 10^5 cells/mL in medium, and then treated with different concentrations of buforin IIb and 2-DG alone or in combination for 24 h. After treatment, 10 μL CCK-8 was added to each well, and the plates were incubated in the dark at 37 °C for 2 h. Absorbance at 450 nm was measured using a […]1 multifunction microplate reader. Each experiment was performed in triplicate, and cell viability was expressed as a percentage of the control. The drug-drug interactions between buforin IIb and 2-DG were evaluated using the combination index (CI) described by Chou and Talalay, and calculated using Compusyn software (Biosoft). CI values < 1, = 1 or > 1 indicated synergy, additivity, or antagonism, respectively.

DU145 cells [2] = experiment: Cell cycle analysis (PI staining, FACS); type: cell-based, human; details: 2-DG 2 mM, buforin IIb 2 μM, alone or in combination, 24 h; for S/G2 population: PBS control 46.23%; for G0/G1 population (%G1): PBS control 53.7%
Description: Cell cycle analysis was performed using the Cell Cycle Analysis Kit. Briefly, cells were seeded into 6-well culture plates at a density of 3 × 10^5 cells/mL. After treatment with 2-DG (2 mM) and buforin IIb (2 μM) alone or in combination for 24 h, cells were digested by 0.25% trypsin without EDTA, fixed in 70% cold ethanol for 5 h at 4 °C, and then stained with propidium iodide (PI) and RNase A solution for 30 min at 37 °C in the dark. The cell distribution across the cell cycle was analyzed with a FACS Vantage SE flow cytometer.

DU145 cells [3] = experiment: Annexin V-FITC/PI apoptosis flow cytometry; type: cell-based, human
Description: DU145 cells were seeded (3 × 10^5 cells/mL) into 6-well plates and treated with buforin IIb (2 μM) and 2-DG (2 mM) alone and in combination for 24 h. After collecting and washing with PBS, the cells were re-suspended in 500 μL of binding buffer, stained with FITC-conjugated Annexin V and PI, and incubated on ice in the dark for 10 min. The stained cells were analyzed by flow cytometry, and the percentage of apoptotic cells was calculated using Cell Quest software.

DU145 cells [4] = experiment: L-lactate production; type: cell-based, human; details: 2 mM 2-DG 24 h; 2 μM buforin IIb 12 h; combination: 2-DG pretreatment 12 h then buforin IIb 12 h; lactate in medium
Description: (§2) Cells were seeded at approximately 3 × 10^5 cells/mL in 6-well plates and treated with 2-DG (2 mM) alone for 24 h and buforin IIb alone (2 μM) or both for 12 h. After centrifugation, the culture medium and cells were collected to estimate the L-lactate and ATP content using the ATP content assay kit (Solarbio, Beijing, China) and L-lactate assay kit (Jiancheng Bioengineering, Nanjing, China) according to the manufacturer’s protocol. […] The collected cells were subjected to ultrasonic disruption and centrifuged at 8000× g for 10 min at 4 °C to collect the supernatant for intracellular ATP detection. Creatine kinase catalyzes the production of phosphocreatine from creatine and ATP. The level of ATP was determined by detecting the phosphocreatine content though the colorimetric method of phosphomolybdic acid at 700 nm. Six replicates were performed for each group, and the experiments were repeated three times to confirm the results.

DU145 cells [5] = experiment: ROS assay (H2DCFDA, flow cytometry); type: cell-based, human; details: 2 mM 2-DG 12 h, with or without 2 μM buforin IIb 6 h; combination compared with 2 μM buforin alone, p < 0.001
Description: Intracellular ROS level was measured by detecting the fluorescence intensity of the peroxide sensitive fluorescent probe H2DCFDA. Briefly, DU145 cells (1 × 10^5 cells/mL) were seeded into 24-well plates and treated with 2-DG (2 mM) for 12 h, then treated with or without buforin IIb (2 μM) for 6 h, followed by incubation with 10 μM H2DCFDA for 30 min in the dark. The fluorescence intensity was measured at 488 nm by flow cytometry to evaluate the production of ROS.

[6] = test system: normal prostatic epithelial WPMY-1 cell line; experiment: CCK-8 cell viability assay, WPMY-1; type: cell-based
Description: as §1

[7] = test system: Bcl-2, Bak, Bax, cytochrome c, caspase 3 in DU145 cells; experiment: Western blot of apoptosis-related proteins; type: cell-based, human; details: 2 mM 2-DG 12 h and/or 2 μM buforin IIb 12 h
Description: DU145 cells were treated with 2-DG (2 mM) for 12 h, then treated with or without buforin IIb (2 μM) for 12 h. The cells were lysed on ice for 30 min in RIPA lysis buffer, and the lysates were centrifuged at 12,000× g for 10 min at 4 °C. The supernatant was collected, separated by 12% sodium dodecyl sulfate-polyacrylamide gel electrophoresis (SDS-PAGE), and transferred onto a polyvinylidene difluoride (PVDF) membrane. After blocking with 5% skim milk in PBS, the PVDF membrane incubated with primary antibodies against Bcl-2, Bak, Bax, cytochrome C, caspase 3, and β-actin overnight at 4 °C, followed by incubating with appropriate secondary antibodies. After washing, bands were visualized by using ECL detection system according to the manufacturer’s instructions.

mouse erythrocytes = experiment: Hemolytic activity assay; type: cell-based; details: mouse RBCs 4% (v/v), 30 min, 37 °C, absorbance 570 nm; different concentrations
Description: The hemolytic assay was conducted using mouse red blood cells (RBCs) as the method described previously. Briefly, erythrocytes were isolated by centrifugation at 1000× g for 10 min, washed three times with PBS, and resuspended at a final concentration of 4% (v/v). After incubating cells with 2-DG and buforin IIb alone or in combination at different concentrations for 30 min at 37 °C, the mixture was centrifuged at 1000× g for 5 min to obtain the supernatant. A volume of 100 μL of supernatant was removed to a new 96-well plate and the absorbance was measured at 570 nm. PBS and 0.1% Triton X-100 were used as agents for 0 and 100% hemolysis, respectively. The percentage of hemolysis was calculated as follows: (Asample − APBS)/(ATritonX-100 − APBS) × 100%, where A is the absorbance. Data are presented as the mean ± standard error of the mean (SEM) of at 4–6 independent experiments.

[8] = test system: prostate cancer cell line DU145; details: 1 mM 2-DG alone; ref 28 (Sahra et al. 2010); cited from earlier work
Excerpt: Glycolysis inhibitors have been studied extensively in recent years as a group of compounds with a potential anticancer activity. This is associated with increasing knowledge of metabolic disorders in cancer cells. One difference between cancer cells and normal cells is that the metabolism of cancer cells is reprogrammed to generate energy from aerobic glycolysis instead of oxidative phosphorylation, which affects mitochondrial function. One effective anticancer strategy is to combine mitochondrial and antiglycolytic drugs with different molecular targets, which may elicit synergistic e ...

DU145 cells [9] = experiment: Mitochondrial membrane potential (JC-1, flow cytometry); type: cell-based, human; details: for effect on Δψm (JC-1 green/red fluorescence ratio, words): 2 mM 2-DG, 2 μM buforin IIb 12 h
Description: The JC-1 Assay Kit was used to measure changes in mitochondrial membrane potential. Briefly, cells (5 × 10^5 cells/mL) were seeded into 6-well plates and treated with 2-DG (2 mM) for 12 h, then treated with or without buforin IIb (2 μM) for 12 h. DU145 cells were collected, washed in PBS, and incubated with 10 μg/mL JC-1 for 30 min. The cells were then collected by centrifugation and analyzed by flow cytometry. The red fluorescence indicated JC-1 aggregates, whereas green fluorescence indicated JC-1 monomers. Aggregated JC-1 (red fluorescence) indicates a high membrane potential, whereas monomer JC-1 (green fluorescence) indicates a membrane collapse.

DU145 cells [10] = experiment: EdU incorporation assay (cell proliferation); type: cell-based, human; details: buforin IIb 2 μM, alone or in combination, 24 h
Description: Cultured cells were plated in 12-well plates at a density of 2 × 10^5 cells/mL and treated with buforin IIb (2 μM) and 2-DG (2 mM) alone and in combination for 24 h. Cells were then incubated with in medium containing EdU (10 μM) for 2 h, fixed with 4% paraformaldehyde for 15 min, and permeabilized with 0.2% Triton X-100 for 15 min. Cells were then incubated with EdU staining cocktail at room temperature in the dark for 30 min. After washing with PBS, cell nuclei were stained with DAPI at a concentration of 10 μg/mL for 15 min. More than five images of each well were acquired by fluorescence microscope, and the percentage of EdU-positive cells was evaluated.

DU145 xenograft tumors = experiment: DU145 xenograft tumor experiment; type: in vivo, BALB/c nude mice; details: buforin IIb 5 mg/kg tail vein, 2-DG 400 mg/kg oral gavage, days 1, 2, 3, 6, 9; tumor weight on day 12 vs PBS; n = 5 per group
Excerpt: Male BALB/c nude mice (4-6 weeks old) were obtained from the Model Animal Research Center of Nanjing University. All of the animal experiments were approved by the Institutional Animal Care and Use Committee (IACUC) of the Nanjing Normal University and Jiangsu Association for Laboratory Animal Science. BALB/c nude mice were subcutaneously injected with 3 × 10^6 DU145 cells in the right axillary region. When the tumor volume reached 75 mm^3, nude mice were randomly divided into the following four groups (n = 5 per group): PBS, buforin IIb (5 mg/kg), 2-DG (400 mg/kg), and combination group (5 mg/kg buforin IIb + 400 mg/kg 2-DG). Buforin IIb was injected through the tail vein of mice and 2-DG was administered via oral gavage on days 1, 2, 3, 6, and 9. Body weight and tumor volume were measured three times a week. Mice were sacrificed by isoflurane inhalation followed by cervical dislocation. The tumors were excised and assessed. Tumor volume was calculated using the formula V = ab^2/2, where 'a' and 'b' are the tumor dimensions at the longest and widest points, respectively. On day 12, tumor tissues were collected and weighed. […] PCNA and TUNEL positive cells were quantified by measuring pixels in 10 consecutive fields at 40× magnification. Positive cells were scored manually.

DU145 cells [11] = experiment: Intracellular ATP level; type: cell-based, human; details: 2 μM buforin IIb 12 h
Description: as §2

O=CC[C@@H](O)[C@H](O)[C@H](O)CO [2-DG, 2-Deoxy-D-glucose]
effect on DU145 cell viability / growth ([1]; 2 mM 2-DG alone): did not inhibit DU145 cell growth significantly; also recorded: no significant effect on cell viability and apoptosis
pIC50 ([1]; Homo sapiens, DU-145, CCK8 assay, 24 h, data not shown): 1.92
%G2 (DU145 cells [2]; PBS 8.15): 7.2%
%S (DU145 cells [2]; PBS 38.08): 28.05%
S/G2 population (DU145 cells [2]): 35.25%
G0/G1 population (%G1) (DU145 cells [2]): 64.76%
induction of apoptosis (DU145 cells [3]; 2-DG alone (2 mM) compared with PBS control): did not induce DU145 cell apoptosis
lactate production, % of that in the control (DU145 cells [4]): approximately 60%
ROS, H2DCFDA fluorescence intensity (DU145 cells [5]): no effect on H2DCFDA fluorescence intensity
cytotoxicity against WPMY-1 cells ([6]; 2 mM 2-DG and 2 μM buforin IIb alone or in combination): no significant cytotoxicity
inhibition of viability of WPMY-1 cells ([6]; 4 mM 2-DG and 4 μM buforin IIb alone or in combination): No significant inhibition of viability
effect on viability of WPMY-1 cells ([6]; all tested concentrations): no effect on the viability
Bcl-2 family protein levels [7]: downregulated Bcl-2 and upregulated Bak
cytochrome c and caspase 3 [7]: did not promote the release of cytochrome c from mitochondria or activate caspase 3
hemolytic activity (mouse erythrocytes): no hemolytic activity
effect on cell viability and apoptosis in DU145 cells [8]: almost no effect on cell viability and apoptosis
effect on Δψm (JC-1 green/red fluorescence ratio, words) (DU145 cells [9]): no effect on Δψm
effect on mitochondrial Δψm and ROS production (DU145 cells [9]; 2-DG (2 mM) alone): no effect on mitochondrial Δψm and ROS production
inhibition at 2000 µM (DU145 cells [10]; Homo sapiens, DU-145, 2-DG 2 mM, read-out: inhibition of cell proliferation (rate)): 14%
tumor growth inhibition rate (DU145 xenograft tumors): 39.53%
activity at 2000 µM (DU145 cells [11]; Homo sapiens, DU-145, 2 mM 2-DG 24 h, read-out: ATP levels, % of control levels): 70%

Buforin IIb
inhibition of DU145 cell viability ([1]; 2 μM buforin IIb alone or with 2 mM 2-DG, 24 h, CCK-8): 25%
S/G2 population (DU145 cells [2]): 30.06%
G0/G1 population (%G1) (DU145 cells [2]): 69.94%
apoptosis (DU145 cells [3]; 2 μM buforin IIb alone or with 2 mM 2-DG, 24 h, Annexin V/PI FACS): 21.45%
lactate production, % of that in the control (DU145 cells [4]): ~80%
Bcl-2 family protein levels [7]: downregulated Bcl-2 and upregulated Bak
cytochrome c and caspase 3 [7]: increased cytochrome c levels and induced the cleavage of procaspase 3
effect on Δψm (JC-1 green/red fluorescence ratio, words) (DU145 cells [9]): increased the green/red fluorescence ratio
inhibition of cell proliferation (rate) (DU145 cells [10]; 2-DG 2 mM): 53%
ATP levels, % of control levels (DU145 cells [11]; 2 mM 2-DG 24 h): 30%
